Tests used:
[1] = molecular target: T1, Type-2 angiotensin II receptor (Homo sapiens, UniProt P50052); format: cell-based; conditions: cho-k1; also: in other assays of this panel Not Active means under 50% inhibition at 10 µM
T1 sequence (P50052 whole entry): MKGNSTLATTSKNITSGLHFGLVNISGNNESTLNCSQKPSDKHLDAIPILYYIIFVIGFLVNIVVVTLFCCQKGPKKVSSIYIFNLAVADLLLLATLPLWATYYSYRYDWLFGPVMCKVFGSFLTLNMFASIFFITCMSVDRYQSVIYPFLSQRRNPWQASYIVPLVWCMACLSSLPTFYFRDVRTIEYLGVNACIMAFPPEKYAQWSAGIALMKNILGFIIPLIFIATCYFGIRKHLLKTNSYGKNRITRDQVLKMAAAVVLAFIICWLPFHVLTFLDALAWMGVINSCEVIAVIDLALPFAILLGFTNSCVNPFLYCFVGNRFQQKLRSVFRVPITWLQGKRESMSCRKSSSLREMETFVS

[2] = molecular target: T2, Nitric oxide synthase, inducible (Mus musculus, UniProt P29477); design: species or system Escherichia coli;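 also: inhibition of iNOS enzyme activity measured with L-arginine as substrate; in other assays of this panel Not Active means under 50% inhibition at 10 µM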
T2 sequence (P29477 whole entry): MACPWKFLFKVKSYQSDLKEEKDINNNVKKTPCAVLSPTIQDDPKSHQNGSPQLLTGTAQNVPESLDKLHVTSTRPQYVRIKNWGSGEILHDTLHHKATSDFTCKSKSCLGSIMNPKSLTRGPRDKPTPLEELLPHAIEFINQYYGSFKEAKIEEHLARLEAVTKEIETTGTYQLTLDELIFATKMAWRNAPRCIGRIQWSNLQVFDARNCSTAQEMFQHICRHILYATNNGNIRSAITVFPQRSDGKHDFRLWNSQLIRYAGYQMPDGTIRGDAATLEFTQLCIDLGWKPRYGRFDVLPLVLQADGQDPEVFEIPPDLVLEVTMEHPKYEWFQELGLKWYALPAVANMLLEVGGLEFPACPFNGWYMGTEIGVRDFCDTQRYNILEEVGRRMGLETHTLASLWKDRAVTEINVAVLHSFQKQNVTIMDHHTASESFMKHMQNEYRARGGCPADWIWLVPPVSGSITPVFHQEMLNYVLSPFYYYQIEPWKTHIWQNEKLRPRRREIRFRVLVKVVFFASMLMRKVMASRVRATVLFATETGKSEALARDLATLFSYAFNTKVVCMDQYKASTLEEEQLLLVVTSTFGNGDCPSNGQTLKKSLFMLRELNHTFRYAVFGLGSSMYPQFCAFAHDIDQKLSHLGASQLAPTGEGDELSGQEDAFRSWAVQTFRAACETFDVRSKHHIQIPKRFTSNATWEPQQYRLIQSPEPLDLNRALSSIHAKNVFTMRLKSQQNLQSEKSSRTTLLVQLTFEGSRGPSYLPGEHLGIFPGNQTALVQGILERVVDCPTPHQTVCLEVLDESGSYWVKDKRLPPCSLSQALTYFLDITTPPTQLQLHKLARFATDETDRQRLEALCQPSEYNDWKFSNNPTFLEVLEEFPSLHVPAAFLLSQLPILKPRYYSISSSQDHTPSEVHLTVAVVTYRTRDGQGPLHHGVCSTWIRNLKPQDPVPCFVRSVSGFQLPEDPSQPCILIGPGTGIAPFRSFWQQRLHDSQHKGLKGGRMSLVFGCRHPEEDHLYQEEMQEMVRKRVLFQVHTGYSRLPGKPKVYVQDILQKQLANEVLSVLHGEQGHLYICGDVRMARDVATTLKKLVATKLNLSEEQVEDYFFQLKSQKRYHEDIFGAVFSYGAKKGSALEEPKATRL

[3] = DRUGMATRIX: Phorbol Ester radioligand binding (ligand: [3H] PDBu); format: cell membranes, Mus musculus, ICR, Brain, Membrane; conditions: Not Active = under 50% inhibition at 10 µM
[4] = molecular target: Cytochrome P450 2C9 (Homo sapiens, UniProt P11712); conditions: bti-tn-5b1-4; also: in other assays of this panel Not Active means under 50% inhibition at 10 µM
Sequence of Cytochrome P450 2C9 (P11712 whole entry): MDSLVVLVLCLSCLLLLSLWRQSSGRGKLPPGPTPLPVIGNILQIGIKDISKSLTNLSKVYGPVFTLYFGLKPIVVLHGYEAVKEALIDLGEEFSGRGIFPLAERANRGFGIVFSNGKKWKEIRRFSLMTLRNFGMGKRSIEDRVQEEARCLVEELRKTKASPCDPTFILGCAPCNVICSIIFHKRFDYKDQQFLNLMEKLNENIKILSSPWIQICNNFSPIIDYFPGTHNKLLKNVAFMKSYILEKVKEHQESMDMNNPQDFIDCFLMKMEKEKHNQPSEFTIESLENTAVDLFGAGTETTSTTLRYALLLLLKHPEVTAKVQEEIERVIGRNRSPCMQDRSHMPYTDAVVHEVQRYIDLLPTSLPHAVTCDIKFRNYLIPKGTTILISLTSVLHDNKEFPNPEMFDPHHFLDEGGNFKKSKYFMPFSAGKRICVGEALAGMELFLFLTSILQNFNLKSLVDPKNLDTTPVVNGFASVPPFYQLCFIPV

[5] = molecular target: T3, Caspase-1 (Homo sapiens, UniProt P29466); design: species or system Escherichia coli;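 also: Caspase-1 enzyme inhibition assay with a peptide substrate; in other assays of this panel Not Active means under 50% inhibition at 10 µM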
T3 sequence (P29466 whole entry): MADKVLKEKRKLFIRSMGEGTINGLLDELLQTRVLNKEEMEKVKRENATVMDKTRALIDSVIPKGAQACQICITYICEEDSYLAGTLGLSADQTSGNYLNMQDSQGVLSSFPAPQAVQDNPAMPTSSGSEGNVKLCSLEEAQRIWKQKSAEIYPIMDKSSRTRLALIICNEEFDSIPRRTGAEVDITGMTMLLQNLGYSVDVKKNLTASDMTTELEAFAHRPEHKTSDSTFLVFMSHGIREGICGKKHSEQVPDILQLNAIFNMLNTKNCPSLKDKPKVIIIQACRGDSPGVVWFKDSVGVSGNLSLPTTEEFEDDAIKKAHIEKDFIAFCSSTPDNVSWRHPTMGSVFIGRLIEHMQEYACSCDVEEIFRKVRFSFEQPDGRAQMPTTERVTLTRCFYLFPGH

[6] = DRUGMATRIX: Glutamate, NMDA, Agonism radioligand binding (ligand: [3H] CGP-39653); format: cell membranes, Rattus norvegicus, Wistar, Cerebral cortex, Membrane; conditions: Not Active = under 50% inhibition at 10 µM
[7] = molecular target: T4, Alpha-1D adrenergic receptor (Homo sapiens, UniProt P25100); format: cell membranes, HEK293, Membrane; conditions: hek293; also: in other assays of this panel Not Active means under 50% inhibition at 10 µM
T4 sequence (P25100 whole entry): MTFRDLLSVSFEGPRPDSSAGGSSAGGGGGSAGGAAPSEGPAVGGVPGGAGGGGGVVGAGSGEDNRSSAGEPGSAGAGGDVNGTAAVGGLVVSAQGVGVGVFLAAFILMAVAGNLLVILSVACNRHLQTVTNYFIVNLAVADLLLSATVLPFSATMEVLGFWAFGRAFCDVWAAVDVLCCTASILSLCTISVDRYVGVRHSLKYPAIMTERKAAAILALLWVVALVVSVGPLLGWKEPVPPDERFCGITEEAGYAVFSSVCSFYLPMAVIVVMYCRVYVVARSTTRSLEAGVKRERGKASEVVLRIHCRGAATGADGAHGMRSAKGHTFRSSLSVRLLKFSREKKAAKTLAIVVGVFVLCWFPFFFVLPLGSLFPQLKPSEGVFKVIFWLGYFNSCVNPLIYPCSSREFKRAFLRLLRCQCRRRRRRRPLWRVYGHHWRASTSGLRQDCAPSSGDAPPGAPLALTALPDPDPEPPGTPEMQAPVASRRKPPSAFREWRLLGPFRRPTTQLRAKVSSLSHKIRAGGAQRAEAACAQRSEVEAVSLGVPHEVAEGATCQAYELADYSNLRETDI

[8] = DRUGMATRIX: Phosphodiesterase PDE3 enzyme inhibition (substrate: [3H]cAMP + cAMP); format: tissue-based, Homo sapiens; conditions: platelet; Not Active = under 50% inhibition at 10 µM

COc1ccc(C[C@H]2NC[C@H](O)[C@H]2OC(C)=O)cc1 [ANISOMYCIN]
Not Active: IC50 [1] | Ki [1] | IC50 [2] | Ki [2] | IC50 [3] | Ki [3] | IC50 [4] | Ki [4] | IC50 [5] | Ki [5] | IC50 [6] | Ki [6] | IC50 [7] | Ki [7] | IC50 [8] | Ki [8]

CN(C)CCCN1c2ccccc2Sc2ccc(Cl)cc21 [CHLORPROMAZINE]
Not Active: IC50 [1] | IC50 [2] | IC50 [3] | Ki [3] | IC50 [5] | IC50 [6] | Ki [6] | IC50 [8] | Ki [8]

LEAD (II) ACETATE
Not Active: IC50 [1] | Ki [1] | IC50 [2] | Ki [2] | IC50 [3] | Ki [3] | IC50 [4] | Ki [4] | IC50 [5] | Ki [5] | IC50 [6] | Ki [6] | IC50 [7] | Ki [7] | IC50 [8] | Ki [8]

LIPOPOLYSACCHARIDE E. COLI O55:B5
Not Active: IC50 [1] | Ki [1] | IC50 [2] | Ki [2] | IC50 [3] | Ki [3] | IC50 [4] | Ki [4] | IC50 [5] | Ki [5] | IC50 [6] | Ki [6] | IC50 [7] | Ki [7] | IC50 [8] | Ki [8]

CC(C)(C)NCC(O)c1cc(Cl)c(N)c(Cl)c1 (stereo not drawn) [CLENBUTEROL]
Not Active: IC50 [1] | IC50 [2] | IC50 [3] | Ki [3] | IC50 [4] | Ki [4] | IC50 [5] | IC50 [6] | Ki [6] | IC50 [7] | IC50 [8] | Ki [8]

Cc1ccc2cc3c(ccc4ccccc43)c3c2c1CC3 [3-METHYLCHOLANTHRENE]
Not Active: IC50 [1] | IC50 [2] | IC50 [3] | Ki [3] | IC50 [4] | Ki [4] | IC50 [5] | IC50 [6] | Ki [6] | IC50 [7] | IC50 [8] | Ki [8]

O=C(O)CCCc1ccc(N(CCCl)CCCl)cc1 [CHLORAMBUCIL]
Not Active: IC50 [1] | IC50 [2] | IC50 [3] | Ki [3] | IC50 [4] | Ki [4] | IC50 [5] | IC50 [6] | Ki [6] | IC50 [7] | IC50 [8] | Ki [8]

Cc1ccc(/N=C/N(C)/C=N/c2ccc(C)cc2C)c(C)c1 [AMITRAZ]
Not Active: IC50 [1] | IC50 [2] | IC50 [3] | Ki [3] | IC50 [4] | Ki [4] | IC50 [5] | IC50 [6] | Ki [6] | IC50 [7] | IC50 [8] | Ki [8]

CADMIUM ACETATE
Not Active: IC50 [1] | Ki [1] | IC50 [2] | Ki [2] | IC50 [3] | Ki [3] | IC50 [4] | Ki [4] | IC50 [5] | Ki [5] | IC50 [6] | Ki [6] | IC50 [7] | Ki [7] | IC50 [8] | Ki [8]

CC1=C2C(=CO[C@H](C)[C@H]2C)C(O)=C(C(=O)O)C1=O [CITRININ]
Not Active: IC50 [1] | IC50 [2] | IC50 [3] | Ki [3] | IC50 [4] | Ki [4] | IC50 [5] | IC50 [6] | Ki [6] | IC50 [7] | IC50 [8] | Ki [8]

From ChEMBL document CHEMBL1909046, “DrugMatrix in vitro pharmacology data”
